Laboratory results published in paper PMC9030138, “The Facile Preparation of PBA-GO-CuO-Modified Electrochemical Biosensor Used for the Measurement of α-Amylase Inhibitors’ Activity” (Molecules, 2022).

Biological target: T1, α-amylase (Sus scrofa, UniProt P00690)
T1 construct: gene AMY2; from porcine pancreas, type VI-B
T1 sequence (P00690 16-511): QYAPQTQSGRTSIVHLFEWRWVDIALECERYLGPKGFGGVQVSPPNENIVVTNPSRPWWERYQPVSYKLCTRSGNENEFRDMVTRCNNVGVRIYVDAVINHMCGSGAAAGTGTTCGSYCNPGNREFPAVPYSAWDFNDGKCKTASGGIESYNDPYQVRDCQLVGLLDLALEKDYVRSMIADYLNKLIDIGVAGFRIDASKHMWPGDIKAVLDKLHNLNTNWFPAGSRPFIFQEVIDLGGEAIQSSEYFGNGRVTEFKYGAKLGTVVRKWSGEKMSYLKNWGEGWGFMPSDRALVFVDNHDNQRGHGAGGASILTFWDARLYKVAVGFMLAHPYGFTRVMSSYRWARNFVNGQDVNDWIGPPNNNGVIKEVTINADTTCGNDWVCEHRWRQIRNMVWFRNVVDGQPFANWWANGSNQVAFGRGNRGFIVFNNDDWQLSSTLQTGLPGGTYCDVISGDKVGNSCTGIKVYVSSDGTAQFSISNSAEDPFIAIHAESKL
Experiment: electrochemical glucose sensor (PBA-GO-CuO electrode) assay of starch hydrolysis; checked by iodine colorimetric assay
Assay type: biochemical

Question: How did the IC50 turn out when `O=C(O)c1cc(O)c2c(c1)C(=O)c1cccc(O[C@@H]3O[C@H](CO)[C@@H](O)[C@H](O)[C@H]3O)c1C2=O` [Rhein-8-b-D-glucopyranoside] was run?
Answer: 39.1 µM
